Test results reported in ChEMBL document CHEMBL1126936, “Synthesis and antitumor activity of 10-propargyl-10-deazaaminopterin” (J Med Chem, 1993).

Experiments:
[1] = biological target: T1, Dihydrofolate reductase (Mus musculus, UniProt P00375); test: Inhibition of Dihydrofolate reductase (DHFR) enzyme derived from L1210 cells expressed as Ki (pM); type: cell-based
T1 sequence (P00375 whole entry): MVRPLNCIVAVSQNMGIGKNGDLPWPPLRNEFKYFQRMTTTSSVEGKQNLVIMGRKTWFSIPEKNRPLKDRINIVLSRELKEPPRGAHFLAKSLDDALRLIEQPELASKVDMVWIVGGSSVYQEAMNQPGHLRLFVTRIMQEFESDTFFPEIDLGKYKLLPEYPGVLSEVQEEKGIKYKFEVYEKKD

[2] = species: Mus musculus; test: (§1) Inhibition of growth in L1210 murine leukemia cells in culture expressed as IC50 (nM); type: functional, cell-based
[3] = species: Mus musculus; test: (§2) Transport influx which is determined by competitive binding for the transport protein; expressed as Ki (uM); type: functional, organism-based
[4] = system: Mus musculus; test: Average E0771 solid murine mammary tumor volume in BDF1 female mice (n=5) at 24 mg/kg at 10 day post treatment point; Expressed as % T/C; type: functional
[5] = system: Mus musculus; test: Average E0771 solid murine mammary tumor volume in BDF1 female mice (n=5) at 24 mg/kg at 14 day post treatment point; type: functional
[6] = system: Mus musculus; test: Average E0771 solid murine mammary tumor volume in BDF1 female mice (n=5) at 36 mg/kg at 21 day post treatment point; Expressed as % T/C; type: functional
[7] = system: Mus musculus; test: Average E0771 solid murine mammary tumor volume in BDF1 female mice (n=5) at 24 mg/kg at 14 day post treatment point; Expressed as % T/C; type: functional
[8] = system: Mus musculus; test: Average E0771 solid murine mammary tumor volume in BDF1 female mice (n=3) at 36 mg/kg at 14 day post treatment point
[9] = system: Mus musculus; test: Average E0771 solid murine mammary tumor volume in BDF1 female mice (n=5) at 24 mg/kg at 21 day post treatment point; Expressed as % T/C; type: functional
[10] = system: Mus musculus; test: Average E0771 solid murine mammary tumor volume in BDF1 female mice (n=3) at 36 mg/kg at 21 day post treatment point
[11] = system: Mus musculus; test: Average E0771 solid murine mammary tumor volume in BDF1 female mice (n=5) at 24 mg/kg at 21 day post treatment point; type: functional
[12] = system: Mus musculus; test: Average E0771 solid murine mammary tumor volume in BDF1 female mice (n=5) at 36 mg/kg at 10 day post treatment point; Expressed as % T/C; type: functional
[13] = system: Mus musculus; test: Average E0771 solid murine mammary tumor volume in BDF1 female mice (n=5) at 36 mg/kg at 14 day post treatment point; Expressed as % T/C; type: functional
[14] = system: Mus musculus; test: Average E0771 solid murine mammary tumor volume in BDF1 female mice (n=5) at 24 mg/kg at 10 day post treatment point; type: functional
[15] = system: Mus musculus; test: Average E0771 solid murine mammary tumor volume in BDF1 female mice (n=5) at 36 mg/kg at 10 day post treatment point; type: functional
[16] = biological target: L1210; test: as §2; type: functional, cell-based, Mus musculus
[17] = system: L1210; test: as §1; type: functional, cell-based; settings: Mus musculus
[18] = system: Mus musculus; test: Average E0771 solid murine mammary tumor volume in BDF1 female mice (n=5) at 3 mg/kg at 14 day post treatment point; Expressed as % T/C; type: functional
[19] = system: Mus musculus; test: Average E0771 solid murine mammary tumor volume in BDF1 female mice (n=5) at 6 mg/kg at 10 day post treatment point; type: functional
[20] = system: Mus musculus; test: Average E0771 solid murine mammary tumor volume in BDF1 female mice (n=5) at 9 mg/kg at 14 day post treatment point; Expressed as % T/C; type: functional
[21] = system: Mus musculus; test: Average E0771 solid murine mammary tumor volume in BDF1 female mice (n=5) at 6 mg/kg at 21 day post treatment point; type: functional
[22] = system: Mus musculus; test: Average E0771 solid murine mammary tumor volume in BDF1 female mice (n=5) at 3 mg/kg at 21 day post treatment point; type: functional
[23] = system: Mus musculus; test: Average E0771 solid murine mammary tumor volume in BDF1 female mice (n=5) at 9 mg/kg at 10 day post treatment point; type: functional
[24] = system: Mus musculus; test: Average E0771 solid murine mammary tumor volume in BDF1 female mice (n=5) at 6 mg/kg at 21 day post treatment point; Expressed as % T/C; type: functional
[25] = system: Mus musculus; test: Average E0771 solid murine mammary tumor volume in BDF1 female mice (n=5) at 9 mg/kg at 21 day post treatment point; Expressed as % T/C; type: functional
[26] = system: Mus musculus; test: Average E0771 solid murine mammary tumor volume in BDF1 female mice (n=5) at 6 mg/kg at 14 day post treatment point; type: functional
[27] = system: Mus musculus; test: Average E0771 solid murine mammary tumor volume in BDF1 female mice (n=5) at 3 mg/kg at 10 day post treatment point; type: functional
[28] = system: Mus musculus; test: Average E0771 solid murine mammary tumor volume in BDF1 female mice (n=5) at 3 mg/kg at 21 day post treatment point; Expressed as % T/C; type: functional
[29] = system: Mus musculus; test: Average E0771 solid murine mammary tumor volume in BDF1 female mice (n=5) at 9 mg/kg at 14 day post treatment point; type: functional
[30] = system: Mus musculus; test: Average E0771 solid murine mammary tumor volume in BDF1 female mice (n=5) at 3 mg/kg at 10 day post treatment point; Expressed as % T/C; type: functional
[31] = system: Mus musculus; test: Average E0771 solid murine mammary tumor volume in BDF1 female mice (n=5) at 6 mg/kg at 10 day post treatment point; Expressed as % T/C; type: functional
[32] = system: Mus musculus; test: Average E0771 solid murine mammary tumor volume in BDF1 female mice (n=5) at 3 mg/kg at 14 day post treatment point; type: functional
[33] = system: Mus musculus; test: Average E0771 solid murine mammary tumor volume in BDF1 female mice (n=5) at 9 mg/kg at 10 day post treatment point; Expressed as % T/C; type: functional
[34] = system: Mus musculus; test: Average E0771 solid murine mammary tumor volume in BDF1 female mice (n=5) at 9 mg/kg at 21 day post treatment point; type: functional
[35] = system: Mus musculus; test: Average E0771 solid murine mammary tumor volume in BDF1 female mice (n=5) at 6 mg/kg at 14 day post treatment point; Expressed as % T/C; type: functional

What does the source list for `CC(Cc1cnc2nc(N)nc(N)c2n1)c1ccc(C(=O)NC(CCC(=O)O)C(=O)O)cc1` (configuration not stated)?
Ki [1]: 0.0041 nM; IC50 [2]: 1.34 nM; Ki [3]: 950 nM

How did the Ki [1] turn out when `Nc1nc(N)c2nc(CCc3ccc(C(=O)N[C@@H](CCC(=O)O)C(=O)O)cc3)cnc2n1` was run?
Its Ki is 0.0036 nM.

What about the IC50 [2] of the same compound?
Its IC50 is 1.8 nM.

What about the Ki [3] of the same compound?
The Ki was 900 nM.

Which T/C [4] does the source give for `C#CCC(Cc1cnc2nc(N)nc(N)c2n1)c1ccc(C(=O)NC(CCC(=O)O)C(=O)O)cc1` (configuration not stated) here?
The T/C was 47%.

And the Ki [1]?
Its Ki is 0.0182 nM.

And the Average tumor volume [5]?
Its Average tumor volume is 19 mm**3.

What about the T/C [6] of the same compound?
The T/C was 1%.

What about the T/C [7] of the same compound?
The T/C was 2%.

And the Average tumor volume [8]?
The Average tumor volume was 6 mm**3.

What about the T/C [9] of the same compound?
Its T/C is 10%.

What about the Average tumor volume [10] of the same compound?
The Average tumor volume was 21 mm**3.

And the Average tumor volume [11]?
Its Average tumor volume is 204 mm**3.

What about the T/C [12] of the same compound?
The T/C was 31%.

What about the T/C [13] of the same compound?
Its T/C is 1%.

And the Average tumor volume [14]?
Its Average tumor volume is 62 mm**3.

What about the IC50 [2] of the same compound?
Its IC50 is 2 nM.

And the Average tumor volume [15]?
Its Average tumor volume is 48 mm**3.

What about the Ki [3] of the same compound?
The Ki was 450 nM.

What does the source list for `CCCCCC(Cc1cnc2nc(N)nc(N)c2n1)c1ccc(C(=O)NC(CCC(=O)O)C(=O)O)cc1` (configuration not stated)?
Ki [1]: > 1 nM; Ki [16]: 1000 nM; IC50 [17]: 251 nM

How did the Ki [1] turn out when `CCCC(Cc1cnc2nc(N)nc(N)c2n1)c1ccc(C(=O)NC(CCC(=O)O)C(=O)O)cc1` (configuration not stated) was run?
The Ki was 0.0092 nM.

And the Ki [16]?
Its Ki is 1100 nM.

And the IC50 [17]?
Its IC50 is 2.03 nM.

`CN(Cc1cnc2nc(N)nc(N)c2n1)c1ccc(C(=O)N[C@@H](CCC(=O)O)C(=O)O)cc1` [METHOTREXATE] was tested. Which T/C [18] did it give?
Its T/C is 15%.

And the Average tumor volume [19]?
Its Average tumor volume is 34 mm**3.

And the T/C [20]?
Its T/C is 2%.

What about the Average tumor volume [21] of the same compound?
Its Average tumor volume is 382 mm**3.

What about the Average tumor volume [22] of the same compound?
Its Average tumor volume is 1260 mm**3.

What about the Average tumor volume [23] of the same compound?
Its Average tumor volume is 4 mm**3.

And the T/C [24]?
Its T/C is 18%.

And the T/C [25]?
Its T/C is 15%.

What about the Average tumor volume [26] of the same compound?
Its Average tumor volume is 19 mm**3.

And the Average tumor volume [27]?
The Average tumor volume was 113 mm**3.

And the T/C [28]?
The T/C was 61%.

What about the IC50 [17] of the same compound?
The IC50 was 9.5 nM.

What about the Average tumor volume [29] of the same compound?
Its Average tumor volume is 19 mm**3.

What about the T/C [30] of the same compound?
The T/C was 86%.

What about the T/C [31] of the same compound?
The T/C was 26%.

What about the Average tumor volume [32] of the same compound?
The Average tumor volume was 187 mm**3.

And the T/C [33]?
Its T/C is 3%.

What about the Average tumor volume [34] of the same compound?
The Average tumor volume was 310 mm**3.

And the T/C [35]?
Its T/C is 2%.

And the Ki [3]?
Its Ki is 4200 nM.
